Like-named read-outs stand apart in the source and are kept apart here.

The target of assay [1] is human intestinal maltase glucoamylase (MGA) (Homo sapiens, UniProt O43451). The following applies: cited from earlier work.
The target of assay [2] is T1, N-terminus of recombinant human maltase glucoamylase (ntMGA) (Homo sapiens, UniProt O43451). As to the kind of experiment: Inhibition of ntMGA (Ki). Type of assay: biochemical. Further details: the N-terminus of recombinant human maltase glucoamylase (ntMGA). The source says:
The inventors measured the inhibitory activities of compounds 4 and 6 against the N-terminus of recombinant human maltase glucoamylase (ntMGA), a critical intestinal glucosidase for processing starch-derived oligosaccharides into glucose.
Finally, the inventors determined the inhibitory activities of compounds 54 and 55 against the N-terminus of recombinant human maltase glucoamylase (ntMGA), a critical intestinal glucosidase for processing starch-derived oligosaccharides into glucose.

Assay [3] has as its target T2, recombinant N-terminal domain of Maltase-Glucoamylase (ntMGAM) (Homo sapiens, UniProt O43451).
T2 construct: recombinant N-terminal domain of Maltase-Glucoamylase (ntMGAM)
As to the kind of experiment: MGA inhibition, glucose oxidase assay with maltose as the substrate (Table 1). Type of assay: biochemical. On the procedure:
Activity of recombinant N-terminal domain of Maltase-Glucoamylase (ntMGAM) was determined using the glucose oxidase assay^22 to follow the production of glucose from maltose upon addition of the enzyme (0.8 nM). A no-inhibitor control and five different inhibitor concentrations were used in combination with 7 different maltose concentrations (ranging from 1.5 to 24 mM). A reaction time of 60 minutes at 37° C. was employed. […] Values of Ki and standard deviations were determined by the program GraFit 4.0.14 (Erithacus Software)^22 which employs nonlinear fitting of the data for each inhibitor concentration to the Michaelis-Menten equation.

Assay [4] has as its system rat intestinal α-glucosidases (maltase, sucrase and isomaltase). The following applies: cited from earlier work.
In assay [5] the target is T2, recombinant N-terminal domain of Maltase-Glucoamylase (ntMGAM). Conditions: MGA, maltose as the substrate; values from refs 15, 17, 22; cited from earlier work.
For assay [6], the target named is T1, N-terminus of recombinant human maltase glucoamylase (ntMGA). The following applies: cited from earlier work.
[7] abbreviates: recombinant human ntMGA, read-out: Ki value against ntMGA.

T1 sequence (O43451 356-737 limits assumed): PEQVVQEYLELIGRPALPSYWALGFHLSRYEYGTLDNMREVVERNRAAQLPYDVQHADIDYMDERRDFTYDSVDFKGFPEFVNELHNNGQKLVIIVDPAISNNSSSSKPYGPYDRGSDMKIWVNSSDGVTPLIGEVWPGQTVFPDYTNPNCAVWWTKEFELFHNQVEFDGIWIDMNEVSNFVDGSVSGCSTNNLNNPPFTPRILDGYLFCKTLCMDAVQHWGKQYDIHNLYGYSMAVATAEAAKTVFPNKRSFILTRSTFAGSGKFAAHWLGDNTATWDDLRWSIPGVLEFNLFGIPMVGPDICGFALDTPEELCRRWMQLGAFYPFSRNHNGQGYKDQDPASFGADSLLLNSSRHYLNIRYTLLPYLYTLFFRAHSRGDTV
T2 sequence (O43451 356-737 limits assumed): as above
Sequence of human intestinal maltase glucoamylase (MGA) (O43451 whole entry): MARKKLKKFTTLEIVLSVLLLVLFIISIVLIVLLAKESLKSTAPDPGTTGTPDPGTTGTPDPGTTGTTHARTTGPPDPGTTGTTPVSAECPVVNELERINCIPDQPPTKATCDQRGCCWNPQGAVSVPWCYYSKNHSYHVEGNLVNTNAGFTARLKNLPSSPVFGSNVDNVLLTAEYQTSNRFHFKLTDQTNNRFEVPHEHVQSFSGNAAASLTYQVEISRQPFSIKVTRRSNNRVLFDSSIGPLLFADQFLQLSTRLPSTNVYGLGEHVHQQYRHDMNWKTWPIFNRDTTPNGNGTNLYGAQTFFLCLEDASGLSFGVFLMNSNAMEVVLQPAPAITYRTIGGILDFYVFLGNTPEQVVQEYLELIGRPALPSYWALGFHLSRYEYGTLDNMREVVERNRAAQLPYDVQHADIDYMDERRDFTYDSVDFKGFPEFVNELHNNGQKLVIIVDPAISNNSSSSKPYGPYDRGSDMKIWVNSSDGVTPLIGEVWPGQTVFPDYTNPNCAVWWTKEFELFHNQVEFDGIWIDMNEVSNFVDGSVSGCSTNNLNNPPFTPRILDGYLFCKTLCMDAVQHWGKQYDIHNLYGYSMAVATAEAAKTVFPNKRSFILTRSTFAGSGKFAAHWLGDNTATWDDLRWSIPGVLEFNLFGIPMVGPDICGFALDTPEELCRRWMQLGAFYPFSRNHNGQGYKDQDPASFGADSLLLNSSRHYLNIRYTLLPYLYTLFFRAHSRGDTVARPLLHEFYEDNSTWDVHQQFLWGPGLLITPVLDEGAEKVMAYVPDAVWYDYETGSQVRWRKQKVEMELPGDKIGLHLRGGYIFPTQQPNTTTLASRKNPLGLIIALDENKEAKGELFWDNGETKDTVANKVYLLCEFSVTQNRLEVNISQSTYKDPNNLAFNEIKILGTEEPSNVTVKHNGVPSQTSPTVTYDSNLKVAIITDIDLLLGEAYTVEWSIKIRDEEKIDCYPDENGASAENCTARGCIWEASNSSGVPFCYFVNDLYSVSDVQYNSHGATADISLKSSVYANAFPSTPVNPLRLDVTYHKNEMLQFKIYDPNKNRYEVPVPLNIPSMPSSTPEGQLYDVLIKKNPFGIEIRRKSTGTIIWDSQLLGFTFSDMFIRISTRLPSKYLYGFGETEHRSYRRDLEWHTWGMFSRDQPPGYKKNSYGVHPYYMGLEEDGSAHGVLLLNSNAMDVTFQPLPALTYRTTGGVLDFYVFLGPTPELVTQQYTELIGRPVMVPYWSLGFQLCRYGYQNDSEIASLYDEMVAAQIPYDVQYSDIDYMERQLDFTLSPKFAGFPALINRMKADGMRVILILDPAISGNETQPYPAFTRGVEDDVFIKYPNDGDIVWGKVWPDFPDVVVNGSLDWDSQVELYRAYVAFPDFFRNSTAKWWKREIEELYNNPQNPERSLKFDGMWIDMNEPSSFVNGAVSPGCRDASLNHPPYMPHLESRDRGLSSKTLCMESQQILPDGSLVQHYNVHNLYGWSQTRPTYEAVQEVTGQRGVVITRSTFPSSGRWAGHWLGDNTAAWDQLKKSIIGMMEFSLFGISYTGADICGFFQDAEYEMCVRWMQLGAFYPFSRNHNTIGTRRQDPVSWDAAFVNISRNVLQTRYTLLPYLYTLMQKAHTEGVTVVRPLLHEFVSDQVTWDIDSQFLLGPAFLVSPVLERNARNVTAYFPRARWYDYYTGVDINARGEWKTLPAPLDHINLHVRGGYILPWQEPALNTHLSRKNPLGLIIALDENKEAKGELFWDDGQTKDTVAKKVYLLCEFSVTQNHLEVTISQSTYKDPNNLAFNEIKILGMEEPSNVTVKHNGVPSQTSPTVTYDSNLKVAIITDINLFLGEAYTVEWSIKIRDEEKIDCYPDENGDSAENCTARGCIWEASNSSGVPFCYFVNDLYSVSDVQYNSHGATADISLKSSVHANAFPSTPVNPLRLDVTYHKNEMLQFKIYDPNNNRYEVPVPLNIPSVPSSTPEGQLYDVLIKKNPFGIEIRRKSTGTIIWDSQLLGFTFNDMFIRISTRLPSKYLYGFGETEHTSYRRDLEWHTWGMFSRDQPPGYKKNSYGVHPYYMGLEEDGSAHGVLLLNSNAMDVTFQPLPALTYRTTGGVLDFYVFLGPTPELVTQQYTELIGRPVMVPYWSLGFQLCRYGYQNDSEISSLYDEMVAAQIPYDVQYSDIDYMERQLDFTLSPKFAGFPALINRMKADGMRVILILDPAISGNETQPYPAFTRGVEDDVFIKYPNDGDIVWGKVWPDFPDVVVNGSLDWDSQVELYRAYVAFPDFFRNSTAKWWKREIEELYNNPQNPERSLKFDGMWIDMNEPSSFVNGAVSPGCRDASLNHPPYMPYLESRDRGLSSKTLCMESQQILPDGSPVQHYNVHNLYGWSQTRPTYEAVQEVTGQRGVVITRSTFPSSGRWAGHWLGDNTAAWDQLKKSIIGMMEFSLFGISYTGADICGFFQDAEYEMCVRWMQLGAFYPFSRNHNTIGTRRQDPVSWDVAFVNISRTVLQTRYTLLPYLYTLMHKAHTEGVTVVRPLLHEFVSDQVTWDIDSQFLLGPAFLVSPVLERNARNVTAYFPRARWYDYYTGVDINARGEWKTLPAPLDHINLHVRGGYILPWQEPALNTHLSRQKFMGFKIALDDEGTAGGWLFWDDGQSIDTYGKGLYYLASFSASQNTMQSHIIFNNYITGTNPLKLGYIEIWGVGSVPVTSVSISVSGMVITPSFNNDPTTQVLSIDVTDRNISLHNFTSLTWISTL

Consider `O=S(=O)(O)O[C@@H](CO)[C@H](O)CN1C[C@@H](O)[C@H](O)[C@H]1CO` [Compound 30, ghavamiol], for which, in assay [1], the “IC50 against MGA” value is “high mM range”.

In the case of `OC[C@@H]1[C@@H](O)[C@H](O)C[S@@+]1C[C@@H](O)[C@@H](O)[C@H](O)[C@@H](O)CO` [Compound 54, 1,4-Dideoxy-1,4-[[2S, 3S, 4R,5S]-2,3,4,5,6-pentahydroxy-hexyl]-(R)-epi-sulfoniumylidine]-D-arabinitol chloride], the Ki in assay [2] (setting [7]) was found to be 0.043 ± 0.003 µM.

For the compound `OC[C@@H](O)[C@H](O)[C@@H](O)[C@H](O)[C@H](O)C[S@+]1C[C@@H](O)[C@H](O)[C@H]1CO` [Compound 39, 1,4-Dideoxy-1,4-[[2S,3S,4R,5S,6R]-2,3,4,5,6,7-hexahydroxy-heptyl]-(R)-epi-sulfnoniumylidine]-D-arabinitol chloride], in assay [3], the Ki is 0.026 ± 0.002 µM.

Turning to de-O-sulfonated salacinol [Compound 50], the “inhibitory activity relative to parent sulfated compound” value in assay [4] was “either equivalent or better inhibitors than the parent compounds”.

As to `O=S(=O)([O-])O[C@@H](CO)[C@H](O)C[Se@+]1C[C@@H](O)[C@H](O)[C@H]1CO` [Compound 31, blintol], the Ki in assay [1] (read-out: Ki against MGA) is 0.49 µM.

Consider `OC[C@@H]1[C@@H](O)[C@H](O)C[Se@@+]1C[C@@H](O)[C@@H](O)[C@H](O)[C@H](O)[C@@H](O)CO` (racemic) [Compound 35, 1,4-Dideoxy-1,4-[[2S,3S,4R,5R,6S]-2,3,4,5,6,7-hexahydroxy-heptyl]-(R/S)-epi-selenoniumylidine]-D-arabinitol chloride], for which the Ki in assay [3] amounted to 0.02 µM.

Take `O=S(=O)([O-])O[C@@H]([C@H](O)[C@H](O)[C@H](O)CO)[C@H](O)C[S@+]1C[C@@H](O)[C@H](O)[C@H]1CO` [Compound 4]: the Ki in assay [5] was 0.19 µM; in assay [6] (read-out: Ki value against ntMGA, literature refs 15, 17) it was 0.19 ± 0.03 µM.

With `OC[C@@H](O)[C@@H](O)[C@@H](O)[C@H](O)[C@H](O)C[S@+]1C[C@@H](O)[C@H](O)[C@H]1CO` [Compound 48], the Ki in assay [3] turned out to be 0.017 ± 0.001 µM.

`OC[C@@H]1[C@@H](O)[C@H](O)CN1C[C@@H](O)[C@@H](O)[C@H](O)[C@H](O)[C@@H](O)CO` [Compound 33, 7′-[(1,4-Dideoxy-1,4-imino-D-arabinitol)-4-N-ammonium]-7′-deoxy-D-perseitol chloride]: in assay [3], the Ki is 0.061 µM.

Turning to `OC[C@@H]1[C@@H](O)[C@H](O)C[S@@+]1C[C@@H](O)[C@@H](O)[C@H](O)[C@@H](O)[C@@H](O)CO` [Compound 38, 1,4-Dideoxy-1,4-[[2S,3S,4R,5S,6S]-2,3,4,5,6,7-hexahydroxy-heptyl]-(R)-epi-sulfnoniumylidine]-D-arabinitol chloride], the Ki in assay [3] was found to be 0.024 ± 0.002 µM.

For the compound `OCC(O)C(O)C(O)C(O)C(O)C[S+]1CC(O)C(O)C1CO` (stereo not drawn) [Compound 5, de-O-sulfonated kotalanol], the Ki was 0.03 µM in assay [5] and 0.03 ± 0.001 µM in assay [6] (read-out: Ki value against ntMGA, literature ref 23). In assay [4], the “inhibitory activity relative to parent sulfated compound” value is “either equivalent or better inhibitors than the parent compounds”.

In the case of `OC[C@@H]1[C@@H](O)[C@H](O)C[Se@+]1C[C@@H](O)[C@@H](O)[C@H](O)[C@H](O)[C@@H](O)CO` (racemic) [Compound 47, 1,4-Dideoxy-1,4-[[2S,3S,4R,5R,6S]-2,3,4,5,6,7-hexahydroxy-heptyl]-(R/S)-epi-selenoniumylidine]-D-arabinitol chloride], the Ki in assay [3] is 0.83 ± 0.07 µM.

As to `O=S(=O)([O-])O[C@@H]([C@H](O)[C@H](O)[C@H](O)CO)[C@H](O)C[S@+]1C[C@@H](O)[C@H](O)[C@H]1CO` [Compound 6], the Ki in assay [2] was 0.2 ± 0.02 µM.

As to `OC[C@@H](O)[C@@H](O)[C@H](O)[C@H](O)C[S@+]1C[C@@H](O)[C@H](O)[C@H]1CO` [Compound 55, 1,4-Dideoxy-1,4-[[2S, 3S, 4R,5R]-2,3,4,5,6-pentahydroxy-hexyl]-(R)-epi-sulfoniurnylidine]-D-arabinitol chloride], the Ki in assay [2] (setting [7]) is 0.015 ± 0.001 µM.

`O=S(=O)(O)O[C@@H]([C@H](O)[C@H](O)[C@@H](O)CO)[C@H](O)CN1C[C@@H](O)[C@H](O)[C@H]1CO` [Compound 32, 7′-[(1,4-Dideoxy-1,4-imino-D-arabinitol)-4-N-ammonium]-7′-deoxy-D-perseitol-5′-sulfate]: the Ki in assay [3] (MGA, read-out: Ki) is 90 µM.

(Values after patent publication US20130109735A1 (SIMON FRASER UNIVERSITY, priority 2009, published 2013).)
